# In publication PMC6358863, “Involvement of the Hydroperoxy Group in the Irreversible Inhibition of Leukocyte-Type 12-Lipoxygenase by Monoterpene Glycosides Contained in the Qing Shan Lu Shui Tea” (Molecules, 2019):
# What was measured:
# [1] = biological target: T1, cyclooxygenase-2 (Homo sapiens, UniProt P35354); experiment: cyclooxygenase-2 inhibition assay; type: biochemical; conditions: 25 μM linoleic acid, 24 °C, 5 min
# T1 sequence (P35354 18-604): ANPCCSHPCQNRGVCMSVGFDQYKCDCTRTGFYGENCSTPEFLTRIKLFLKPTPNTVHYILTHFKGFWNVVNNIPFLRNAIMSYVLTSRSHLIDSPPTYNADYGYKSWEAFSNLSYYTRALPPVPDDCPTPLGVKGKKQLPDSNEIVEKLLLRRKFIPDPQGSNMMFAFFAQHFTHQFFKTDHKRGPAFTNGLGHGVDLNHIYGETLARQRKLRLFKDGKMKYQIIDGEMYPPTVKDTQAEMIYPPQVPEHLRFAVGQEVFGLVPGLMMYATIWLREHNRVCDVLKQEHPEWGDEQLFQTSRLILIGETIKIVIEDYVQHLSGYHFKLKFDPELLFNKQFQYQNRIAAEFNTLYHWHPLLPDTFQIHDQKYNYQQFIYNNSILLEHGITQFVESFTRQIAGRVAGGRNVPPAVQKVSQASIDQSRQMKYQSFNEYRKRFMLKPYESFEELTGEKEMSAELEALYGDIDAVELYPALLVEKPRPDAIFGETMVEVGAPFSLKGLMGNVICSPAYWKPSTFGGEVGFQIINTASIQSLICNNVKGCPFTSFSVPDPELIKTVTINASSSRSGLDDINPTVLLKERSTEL
# Method: (§1) Figure 6 Inhibition of various lipoxygenase and cyclooxygenase activities by liguroside A. Reactions were carried out under the standard conditions in the presence of liguroside A at various concentrations and the products were quantified, using a reverse-phase HPLC. Relative enzyme activities of the 15-lipoxygenase-1 (closed circles), platelet-type 12-lipoxygenase (open circles), 5-lipoxygenase (open lozenges), cyclooxygenase-1 (open triangles), and cyclooxygenase-2 (closed triangles), as compared to the activity without inhibitors, are shown.
# (§2) The lipoxygenase and cyclooxygenase reactions were carried out, as described previously. […] The products extracted with ice-cold diethyl ether were analyzed by a reverse-phase HPLC, using a Waters Alliance system equipped with a COSMOSIL 5C18-MS-II column (5-μm particle, 250 × 4.6 mm i.d., Nacalai), with a solvent system of methanol-water-acetic acid (80:20:0.01, v/v), at a flow rate of 1 mL/min, as previously described. Absorption at 235 nm was continuously monitored, using a Waters 2489 UV/Visible detector (Waters, Milford, MA, USA). Protein concentration was determined using a bicinchoninic acid protein assay kit (Thermo Fisher Scientific, Waltham, MA, USA), with bovine serum albumin as a standard.
# [2] = biological target: cyclooxygenase-1 (Homo sapiens, UniProt P23219); experiment: cyclooxygenase-1 inhibition assay; type: biochemical; conditions: 25 μM linoleic acid, 24 °C, 5 min
# Method: as §1, §2
# [3] = biological target: T2, leukocyte-type 12-lipoxygenase (Mus musculus, UniProt P39654); parameters: method as in PMID 23579993; conditions: previous report; read-out: IC50, inhibition of leukocyte-type 12-lipoxygenase activity; cited from earlier work
# T2 sequence (P39654 1-663): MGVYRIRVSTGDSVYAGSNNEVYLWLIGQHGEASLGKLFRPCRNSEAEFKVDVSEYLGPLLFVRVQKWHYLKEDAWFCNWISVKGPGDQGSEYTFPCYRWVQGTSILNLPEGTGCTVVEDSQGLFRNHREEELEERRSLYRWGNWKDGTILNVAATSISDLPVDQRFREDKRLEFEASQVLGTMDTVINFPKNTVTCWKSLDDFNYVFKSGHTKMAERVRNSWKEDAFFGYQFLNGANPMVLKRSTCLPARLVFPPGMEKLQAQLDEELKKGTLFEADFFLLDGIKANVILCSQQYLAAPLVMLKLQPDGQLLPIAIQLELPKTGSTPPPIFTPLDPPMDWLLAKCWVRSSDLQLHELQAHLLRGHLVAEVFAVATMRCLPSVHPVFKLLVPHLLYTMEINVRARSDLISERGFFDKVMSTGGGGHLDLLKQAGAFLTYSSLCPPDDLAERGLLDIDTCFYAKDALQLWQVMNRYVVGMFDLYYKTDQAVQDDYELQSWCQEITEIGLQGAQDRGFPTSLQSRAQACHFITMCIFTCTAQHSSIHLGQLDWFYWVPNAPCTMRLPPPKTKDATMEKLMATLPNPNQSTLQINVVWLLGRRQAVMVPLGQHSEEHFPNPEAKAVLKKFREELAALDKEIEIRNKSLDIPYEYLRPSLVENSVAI
# [4] = biological target: T3, platelet-type 12-lipoxygenase (Homo sapiens, UniProt P18054); experiment: platelet-type 12-lipoxygenase inhibition assay; type: biochemical; conditions: up to 100 μM; 30 min at 37 °C
# T3 sequence (P18054 1-663): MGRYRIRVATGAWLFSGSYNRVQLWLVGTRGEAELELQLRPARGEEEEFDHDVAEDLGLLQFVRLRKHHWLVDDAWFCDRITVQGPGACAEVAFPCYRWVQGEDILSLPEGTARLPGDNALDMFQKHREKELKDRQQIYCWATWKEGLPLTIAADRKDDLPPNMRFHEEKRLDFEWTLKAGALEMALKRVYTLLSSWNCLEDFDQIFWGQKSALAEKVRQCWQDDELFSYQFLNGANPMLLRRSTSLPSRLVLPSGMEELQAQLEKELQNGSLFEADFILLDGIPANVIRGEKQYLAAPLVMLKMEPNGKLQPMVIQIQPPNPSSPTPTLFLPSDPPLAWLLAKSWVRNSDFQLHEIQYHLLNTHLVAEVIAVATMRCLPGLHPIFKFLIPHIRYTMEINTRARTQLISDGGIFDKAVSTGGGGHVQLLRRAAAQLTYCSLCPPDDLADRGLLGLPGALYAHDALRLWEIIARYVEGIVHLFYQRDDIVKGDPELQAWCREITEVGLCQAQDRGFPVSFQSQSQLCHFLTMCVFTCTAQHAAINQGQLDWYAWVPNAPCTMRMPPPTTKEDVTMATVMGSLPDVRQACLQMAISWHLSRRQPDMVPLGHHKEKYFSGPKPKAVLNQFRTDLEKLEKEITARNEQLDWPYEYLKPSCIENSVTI
# Method: as §1, §2
# [5] = biological target: T4, 15-lipoxygenase (Homo sapiens, UniProt P16050); experiment: 15-lipoxygenase inhibition assay; type: biochemical; conditions: 25 μM arachidonic acid, 30 °C, 5 min
# T4 sequence (P16050 1-662): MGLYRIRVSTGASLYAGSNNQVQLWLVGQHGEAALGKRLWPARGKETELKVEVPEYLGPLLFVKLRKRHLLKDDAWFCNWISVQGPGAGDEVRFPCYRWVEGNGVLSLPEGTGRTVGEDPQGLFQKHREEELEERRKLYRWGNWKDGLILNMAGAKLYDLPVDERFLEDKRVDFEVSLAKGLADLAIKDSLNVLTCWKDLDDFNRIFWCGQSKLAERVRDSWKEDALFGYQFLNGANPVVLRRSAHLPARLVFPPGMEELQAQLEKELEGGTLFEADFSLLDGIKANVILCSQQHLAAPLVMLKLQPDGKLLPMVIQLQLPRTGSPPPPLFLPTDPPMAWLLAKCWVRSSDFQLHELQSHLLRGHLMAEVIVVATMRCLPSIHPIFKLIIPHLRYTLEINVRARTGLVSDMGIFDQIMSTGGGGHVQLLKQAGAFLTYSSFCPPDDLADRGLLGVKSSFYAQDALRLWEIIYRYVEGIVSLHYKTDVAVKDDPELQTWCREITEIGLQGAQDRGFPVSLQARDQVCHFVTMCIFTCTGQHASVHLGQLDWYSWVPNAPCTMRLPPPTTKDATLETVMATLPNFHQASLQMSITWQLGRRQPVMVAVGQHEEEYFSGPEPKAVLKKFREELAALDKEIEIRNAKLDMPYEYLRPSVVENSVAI
# Method: as §1, §2
# cyclooxygenase-1, sequence (P23219 24-599, species assumed): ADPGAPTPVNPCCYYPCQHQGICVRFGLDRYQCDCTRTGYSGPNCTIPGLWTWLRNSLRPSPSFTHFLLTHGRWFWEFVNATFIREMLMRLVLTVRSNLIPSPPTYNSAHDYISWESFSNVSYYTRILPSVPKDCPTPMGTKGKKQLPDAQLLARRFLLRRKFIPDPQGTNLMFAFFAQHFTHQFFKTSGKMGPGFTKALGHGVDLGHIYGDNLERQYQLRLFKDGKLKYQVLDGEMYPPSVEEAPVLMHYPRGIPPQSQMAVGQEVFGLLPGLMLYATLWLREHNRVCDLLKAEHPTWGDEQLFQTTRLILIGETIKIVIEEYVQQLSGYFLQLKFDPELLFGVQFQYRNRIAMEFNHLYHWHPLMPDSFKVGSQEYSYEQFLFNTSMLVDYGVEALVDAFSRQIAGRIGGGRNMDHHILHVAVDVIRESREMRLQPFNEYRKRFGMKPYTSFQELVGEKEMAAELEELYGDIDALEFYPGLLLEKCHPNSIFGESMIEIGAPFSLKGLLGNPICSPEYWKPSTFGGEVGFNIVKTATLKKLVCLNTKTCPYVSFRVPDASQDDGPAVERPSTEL
smiles,measurement,setting,value
C/C(=C\CO[C@@H]1O[C@H](CO)[C@@H](OC(=O)/C=C/c2ccc(O)cc2)[C@H](O[C@@H]2O[C@@H](C)[C@H](O)[C@@H](O)[C@H]2O)[C@H]1O)C/C=C/C(C)(C)OO [liguroside A],IC50,[1],16.9 µM
same,IC50,[2],21.5 µM
same,IC50,[3],1.7 µM
same,effect on platelet-type 12-lipoxygenase activity (in words),[4],almost unaffected
same,IC50,[5],3.2 µM
